Where a name gives a salt, the structure may show the parent alone. Where only a bound is given, the exact number is not on record here.

From patent EP4491625A1, “BENZO BICYCLIC COMPOUND, AND PREPARATION METHOD AND APPLICATION THEREOF” (Guangzhou Unirise Pharmaceutical Co., Ltd., priority 2022, dated 2023) come the findings set out here.

One data set concerns the target T1, GLP-1 receptor (Homo sapiens, UniProt P43220).
T1 construct: host or cells: HEK293
Put plainly: cAMP detection assay of agonistic effect in HEK293 cells with high expression of hGLP-1R. To be noted: agonistic effect, cAMP, HEK293 cells with high expression of hGLP-1R; read-out: EC50. It is filed as cell-based. Here is the method:
The cells were constructed by Wuxi New Drug Development Co., Ltd. Shanghai.
The compound was prepared with DMSO to a working concentration of 100µM or 10µM. 10 points of 4-fold dilution (maximum concentration of 1000nM or 100nM after dilution) was done with Bravo V11.
The compound to be tested was diluted 4 times with Bravo to obtain 10 concentrations and the initial concentration was 100µM by Bravo V11. The initial concentration was 100µM.

A short description of data set [1]: Human liver microsome stability test. It is filed as in vitro ADME. To be noted: pH 7.4; human liver microsomes 0.5 mg/mL, 1 µM compound, NADPH, 37 °C. Here is the method: Preparation of compound working solutions: A high-concentration stock solution of the subject and control drug verapamil powder was prepared in DMSO and diluted to a working solution of 100 µM with DMSO before use, with a final concentration of 1 µM of the subject and verapamil.
Preparation of phosphate buffer salt (100 mM, pH 7.4): 7.098 g of disodium hydrogen phosphate was weighed and dissolved ultrasonically in 500 mL of purified water as solution A. 3.400 g of potassium dihydrogen phosphate was weighed and dissolved ultrasonically in 250 mL of purified water as solution B. Solution B was added to the inside of solution A to give a pH of 7.4.
Preparation of 10 mM NADPH: An appropriate amount of NADPH is now weighed before the experiment and a working solution of 10 mM concentration is prepared from phosphate solution.
Preparation of the incubation system: The incubation system was prepared according to the following table, and the incubation system was preheated in a water bath at 37 °C for 10 minutes before use.
Transfer 25 µL of NADPH or phosphate buffer salt to the above incubation system and add 2.5 µL of 100 µM subject or verapamil. For NADPH-added samples, double-parallel preparations were performed; for NADPH-negative samples, single-parallel preparations were performed.
30 µL of the suspension was taken at 0.5, 5, 15, 30, and 60 min, respectively. The reaction was terminated by adding 150 µL of acetonitrile containing the internal standard and vortexed for 10 min.
This was followed by centrifugation at 3220 g for 40 min for protein precipitation. 100 µL of supernatant was transferred to the injection plate and mixed with 100 µL of pure water for UPLC-MS/MS analysis.
All data calculations were performed by Microsoft Excel software. Peak areas were detected by extracted ion mapping. The in vitro half-life (t1/2) of the parent drug was assayed by fitting the natural logarithm of the percentage elimination of the parent drug linearly with time.
The in vitro half-life (t1/2) was calculated by slope: t1/2 = 0.693 / k
The in vitro clearance (in µL/min/mg) was calculated using the following formula: CLint =0.693/ t1/2 * (Incubation system volume (μL) / protein content (mg)) [formula]
Table 3 the experimental results of human liver microsome of the compounds provided in some examples of the present invention

The nature of data set [2]: Pharmacokinetic study in rats (intravenous or gavage, plasma LC-MS/MS). It is filed as in vivo. To be noted: SD rats; for F: po 5 mg/kg versus iv 1 mg/kg; for AUC(0-t) / Cmax / Tmax / half-life: rat, plasma. Here is the method: SD rats: male, 6-8 weeks old, weighing 200-300 g, purchased from SPF ( Beijing ) Biotechnology Co.,Ltd..
At each PK sampling point, 200 µL of whole blood was collected into EDTA-K2 anticoagulant blood tubes and centrifuged at 4°C for 30 min to obtain plasma. Whole blood samples were placed on wet ice before centrifugation. All collected plasma samples were stored on dry ice or frozen until analyzed.
Approximately1 mg of the compound of the present application was weighed and dissolved in DMSO, vortexed and sonicated to obtain a 1 mg/mL standard stock solution. The standard stock solution was diluted with 50% aqueous acetonitrile to obtain standard working solutions with concentrations of 5, 10, 20, 50, 100, 500, 1000, 5000 and 10000 ng/mL. QC working solutions with concentrations of 10, 20, 500 and 8000 ng/mL were prepared using the same dilution method. These QC samples were prepared on the day of analysis in the same way as the standard curve samples.5 µL of standard working solution with concentrations of (5, 10, 20, 50, 100, 500, 1000, 5000 and 10000 ng/mL) was added to 50 µL of blank SD rat plasma to obtain a total volume of 55 µL with concentrations of 0.5-1000 ng/mL (0.5, 1, 2, 5, 10, 50, 100, 500, and 1000 ng/mL) of standard curve samples. QC samples with concentrations of (1 ng/ml (low-1) and 2 ng/ml (low-2), 50 ng/ml (medium), 800 ng/ml (high)) were configured separately.
55 µL of standard samples, 55 µL of QC samples or 55 µL of unknown samples (50 µL of plasma samples added to 5 µL of 50% aqueous acetonitrile) were added to 200 µL of acetonitrile containing an internal standard (dexamethasone) to precipitate proteins. […] The supernatant was taken and diluted 3-fold with water, and 5 µL of the supernatant dilution was injected into the LC-MS/MS system for quantitative analysis under the following assay conditions:
Column: HALO 90A Phenly-Hexyl, 2µm 2.1×30mm.
Pharmacokinetic parameters were calculated by the […] of Phoenix TM Winnonlin® 8.3 software.

T1 sequence (P43220 24-463): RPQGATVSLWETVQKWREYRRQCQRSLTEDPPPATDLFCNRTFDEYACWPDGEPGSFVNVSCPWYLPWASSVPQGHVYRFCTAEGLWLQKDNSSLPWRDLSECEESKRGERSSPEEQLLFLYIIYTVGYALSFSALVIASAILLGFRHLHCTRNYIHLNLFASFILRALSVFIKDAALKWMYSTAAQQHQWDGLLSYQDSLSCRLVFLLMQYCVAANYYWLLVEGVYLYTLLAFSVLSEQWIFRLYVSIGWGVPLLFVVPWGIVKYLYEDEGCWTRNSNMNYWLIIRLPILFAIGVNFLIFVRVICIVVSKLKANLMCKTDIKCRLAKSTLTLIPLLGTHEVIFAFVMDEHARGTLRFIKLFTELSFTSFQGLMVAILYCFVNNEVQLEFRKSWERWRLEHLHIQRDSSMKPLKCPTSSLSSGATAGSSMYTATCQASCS

The EC50 is the concentration at which the effect is half-maximal. On to `O=C(O)c1cc(F)c2nc(C[C@H]3CC[C@H](c4cccc(OCc5ccc(Cl)c6cc(F)oc56)n4)CC3)n(C[C@@H]3CCO3)c2c1` [Compound 39, 2-(((1r,4S)-4-(6-((4-chloro-2-fluorobenzofuran-7-yl)methoxy)pyridin-2-yl)cyclohexyl)methyl)-4-fluoro-1-(((S)-oxetan-2-yl)methyl)-1H-benzo[d]imidazole-6-carboxylic acid], for which the 50% effective concentration (EC50) at GLP-1 receptor worked out at 0.15 nM.
The half-life is the time in which the quantity being followed falls by half. Low readings indicate rapid decline, high ones slow decline. As to `O=C(O)c1ccc2nc(CC3CC=C(c4cccc(OCc5ccc(Cl)c6cc(F)oc56)n4)CC3)n(C[C@@H]3CCO3)c2n1` (stereo partly drawn) [Compound 6, 2-((4-(6-((4-chloro-2-fluorobenzofuran-7-yl)methoxy)pyridin-2-yl)cyclohex-3-en-1-yl)methyl)-3-(((S)-oxetan-2-yl)methyl)-3H-imidazo[4,5-b]pyridine-5-carboxylic acid], the half-life at 1 µM in data set [1] came out at 1.86 h.
For `N#CCC1(Cn2c(CC3CC=C(c4cccc(OCc5ccc(Cl)c6cc(F)oc56)n4)CC3)nc3ccc(C(=O)O)cc32)CC1` (stereo not drawn) [Compound 28, 2-((4-(6-((4-chloro-2-fluorobenzofuran-7-yl)methoxy)pyridin-2-yl)cyclohex-3-en-1-yl)methyl)-1-((1-(cyanomethyl)cyclopropyl)methyl)-1H-benzo[d]imidazole-6-carboxylic acid], the EC50 on GLP-1 receptor stood at 0.07 nM. In data set [1], this compound displayed a half-life at 1 µM greater than 3.08 h.
Regarding `O=C(O)c1ccc2nc(CC3CC=C(c4cccc(OCc5ccc(Cl)c6ccoc56)n4)CC3)n(C[C@@H]3CCO3)c2n1` (stereo partly drawn) [Compound 34, 2-((4-(6-((4-chlorobenzofuran-7-yl)methoxy)pyridin-2-yl)cyclohex-3-en-1-yl)methyl)-3-(((S)-oxetan-2-yl)methyl)-3H-imidazo[4,5-b]pyridine-5-carboxylic acid], the 50% effective concentration (EC50) at GLP-1 receptor was 0.2 nM.
On the same count and under the same terms, in the case of `O=C(O)c1ccc2nc(CC3CCC(c4cccc(OCc5ccc(Cl)c6cc(F)oc56)n4)CC3)n(C[C@@H]3CCO3)c2c1` (stereo partly drawn) [Compound 7, (5)-2-((4-(6-((4-chloro-2-fluorobenzofuran-7-yl)methoxy)pyridin-2-yl)cyclohexyl)methyl)-1-(oxetan-2-ylmethyl)-1H-benzo[d]imidazole-6-carboxylic acid] it was 0.22 nM; in that of `N#CCC1(Cn2c(C[C@H]3CC[C@H](c4cccc(OCc5ccc(Cl)c6cc(F)oc56)n4)CC3)nc3ccc(C(=O)O)cc32)CC1` [Compound 43, 2-(((1r,4r)-4-(6-((4-chloro-2-fluorobenzofuran-7-yl)methoxy)pyridin-2-yl)cyclohexyl)methyl)-1-((1-(cyanomethyl)cyclopropyl)methyl)-1H-benzo[d]imidazole-6-carboxylic acid], 0.2 nM.
Still for that read-out and setting: the result for `CCn1cncc1Cn1c(CC2CC=C(c3cccc(OCc4ccc(Cl)c5cc(F)oc45)n3)CC2)nc2ccc(C(=O)O)cc21` (stereo not drawn) [Compound 29, 2-((4-(6-((4-chloro-2-fluorobenzofuran-7-yl)methoxy)pyridin-2-yl)cyclohex-3-en-1-yl)methyl)-1-((1-ethyl-1H-imidazol-5-yl)methyl)-1H-benzo[d]imidazole-6-carboxylic acid hydrochloride] reads 0.22 nM.
`O=C(O)c1ccc2nc(CC3CC=C(c4ncc(F)c(OCc5ccc(Cl)c6cc(F)oc56)n4)CC3)n(C[C@@H]3CCO3)c2n1` (stereo partly drawn) [Compound 5, 2-((4-(4-((4-chloro-2-fluorobenzofuran-7-yl)methoxy)-5-fluoropyrimidin-2-yl)cyclohex-3-en-1-yl)methyl)-3-(((S)-oxetan-2-yl)methyl)-3H-imidazo[4,5-b]pyridine-5-carboxylic acid]: the half-life at 1 µM in data set [1] was greater than 3.08 h.
Take `O=C(O)c1ccc2nc(C[C@H]3CC=C(c4cccc(OCc5ccc(Cl)c6cc(F)oc56)n4)CC3)n(C[C@@H]3CCO3)c2c1` [Compound 36B, 2-(((R)-4-(6-((4-chloro-2-fluorobenzofuran-7-yl)methoxy)pyridin-2-yl)cyclohex-3-en-1-yl)methyl)-1-(((S)-oxetan-2-yl)methyl)-1H-benzo[d]imidazole-6-carboxylic acid]: the EC50 at GLP-1 receptor amounted to 0.22 nM.
For the compound `O=C(O)c1cc2c(nc(CC3CC=C(c4cccc(OCc5ccc(Cl)c6cc(F)oc56)n4)CC3)n2C[C@@H]2CCO2)s1` (stereo partly drawn) [Compound 8, 2-((4-(6-((4-chloro-2-fluorobenzofuran-7-yl)methoxy)pyridin-2-yl)cyclohex-3-en-1-yl)methyl)-1-(((S)-oxetan-2-yl)methyl)-1H-thieno[2,3-d]imidazole-5-carboxylic acid], the half-life at 1 µM in data set [1] was 3 h.
For the compound `O=C(O)c1ccc2nc(CC3CC=C(c4ncc(F)c(OCc5ccc(Cl)c6ccoc56)n4)CC3)n(C[C@@H]3CCO3)c2c1` (stereo partly drawn) [Compound 3, 2-((4-(4-((4-chlorobenzofuran-7-yl)methoxy)-5-fluoropyrimidin-2-yl)cyclohex-3-en-1-yl)methyl)-1-(((S)-oxetan-2-yl)methyl)-1H-benzo[d]imidazole-6-carboxylic acid], the EC50 on GLP-1 receptor was found to be 0.26 nM. Moreover, in data set [1], the half-life at 1 µM was found to be 1.84 h.
For `O=C(O)c1ccc2nc(CC3CC=C(c4ncc(F)c(OCc5ccc(Cl)c6cc(F)oc56)n4)CC3)n(C[C@@H]3CCO3)c2c1` (stereo partly drawn) [Compound 31], in that order: 0.19 nM and 2.77 h.
The term AUC(0-t) denotes exposure summed from dosing to a finite time, without extrapolation to infinity. The term Cmax denotes the maximum level reached in the sampled fluid or tissue. A word on the Tmax: it is the time at which the peak concentration occurs. As to `O=C(O)c1ccc2nc(CC3CC=C(c4cccc(OCc5ccc(Cl)c6cc(Cl)oc56)n4)CC3)n(C[C@@H]3CCO3)c2c1` (stereo partly drawn) [Compound 25, 2-((4-(6-((2,4-dichlorobenzofuran-7-yl)methoxy)pyridin-2-yl)cyclohex-3-en-1-yl)methyl)-1-(((S)-oxetan-2-yl)methyl)-1H-benzo[d]imidazole-6-carboxylic acid], the F in data set [2] is given as 38.8%. Further, in data set [2] (male, iv, 1 mg/kg), the exposure AUC(0-t) is 1250 ng·h/mL, the maximum concentration (Cmax) amounted to 1080 ng/mL, the Tmax is 0.083 h and the half-life is 2.57 h. For the same compound, in data set [2] (male, po, 5 mg/kg), the AUC(0-t) came to 2440 ng·h/mL, the Cmax amounted to 460 ng/mL, the Tmax was determined as 4 h and the half-life is 5.29 h.
In turn, `O=C(O)c1ccc2nc(C[C@H]3CC[C@H](c4cccc(OCc5ccc(Cl)c6cc(Cl)oc56)n4)CC3)n(C[C@@H]3CCO3)c2c1` [Compound 38B, 2-(((1r,4S)-4-(6-((2,4-dichlorobenzofuran-7-yl)methoxy)pyridin-2-yl)cyclohexyl)methyl)-1-(((S)-oxetan-2-yl)methyl)-1H-benzo[d]imidazole-6-carboxylic acid] had a F in data set [2] of 21.1%. Moreover, in data set [2] (iv, 1 mg/kg), the exposure AUC(0-t) came to 3940 ng·h/mL, the concentration peaked (Cmax) at 5280 ng/mL, the Tmax was determined as 0.083 h and the half-life was 1.45 h. In data set [2] (po, 5 mg/kg), the exposure AUC(0-t) was determined as 4130 ng·h/mL, the Cmax is 1400 ng/mL, the Tmax amounted to 1.17 h and the half-life is 2.62 h.
